Laboratory results as given in article PMC11744668, “2-Cyanopyrimidine-Containing Molecules for N-Terminal Selective Cyclization of Phage-Displayed Peptides” (ACS Chemical Biology, 2025).
“Also recorded” adds a separate entry of the source. Starred links: 1 amine or outer side, 2 acyl side, 3 side chain; linkers in the order of their positions; H or OH if unused. Positions of bridges follow the written chain, without caps; N, C: chain ends. Non-standard residues stand in square brackets, D forms with d. Residues, ends and D or L forms follow the SMILES beside them. No end group written: not given here. X2 = O=C([C@@H]1CSC(c2nccc(N[*:1])n2)=N1)[*:2]; Abu = CC[C@H](N)C(=O)O

Tests used:
[1] = Chloroacetamide addition kinetics with N-terminal Abu peptide CGK-5Abu; conditions: 500 μM peptide; CGK-5Abu vs CGK-5
Description: While pCAmCP and mCAmCP gave efficient cyclization of the peptide fusion of sfGFP, we looked to further investigate the specificity of the reaction using peptide kinetic assays. To do this, we first established reactivity of the compounds with a model peptide (CGK-5, Figures 3A and S16) that was composed of two cysteines flanking a region tuned for solubility in buffer (GGKGG) and with a tryptophan residue on the C-terminus for UV absorbance. […] To test the specificity of the reaction for the N-terminal cysteine, we synthesized a peptide analogue (CGK-5Abu, Figures 3D–F and S17) that contained 2-aminobutyric acid in place of the N-terminal cysteine. […] Since these reactions occurred at 500 μM of peptide to allow for analysis on the HPLC, we envision this difference will likely be exaggerated when using lower peptide/protein concentrations. Although it is unlikely at neutral pH, the chloroacetamide moiety can possibly react with nucleophilic amino acids other than cysteine. […]
The peptide (CGK-5 or CGK-5Abu, 5 mM stock in water) was diluted to 500 μM in ammonium bicarbonate buffer (50 mM, pH 7.5) containing 1.2 mM TCEP. […] Following dilution with 20 μL of water, the sample was then analyzed on a Shimadzu HPLC with an LCMS-2020 mass spectrometer attached (10–40% ACN gradient in H2O over 6 min, 0.1% formic acid, 1 mL/min flow rate, Shimadzu C18 250 × 4.6 mm, 5 μm). […]

[2] = target: T1, ZNRF3 extracellular domain (ZNRF3-ECD) (Homo sapiens, UniProt Q9ULT6); assay: Phage selection against ZNRF3-ECD, NGS enrichment, mCAmCP-cyclized library; type: binding
T1 construct: The ZNRF3 ECD was expressed and characterized exactly as previously described; SUMO (N, cleaved yes); made in house; host or cells: E. coli BL21, co-expressing BirA
T1 sequence (Q9ULT6 56-219 limits assumed): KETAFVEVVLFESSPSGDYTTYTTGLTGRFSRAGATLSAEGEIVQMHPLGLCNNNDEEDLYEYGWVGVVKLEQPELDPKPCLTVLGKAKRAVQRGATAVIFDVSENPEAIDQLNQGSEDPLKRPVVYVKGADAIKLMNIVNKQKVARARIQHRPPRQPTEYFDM
Description: In addition to simply ensuring the cyclization potential on phage, we also looked to investigate the selection differences using two different linkers to macrocyclize the same initial peptide library. ZNRF3 is a membrane protein that contains an intracellular E3 ligase domain and has previously shown potential in promoting degradation of oncogenic membrane proteins, such as PDL1.[32] ZNRF3 also plays a major role in the regulation of the Wnt signaling cascade, which can modulate a variety of cell processes related to oncogenesis and cell differentiation.[33]−[36] […] Because it has an extracellular domain that can be easily accessible to macrocyclic peptides, we envisioned that a selection against the extracellular domain for ZNRF3 (ZNRF3-ECD) would afford peptides that could potentially be used in the development of proteolysis-targeting chimeras (PROTACs) for a variety of membrane proteins. We expressed and characterized a biotinylated ZNRF3-ECD using an Avi-Tag on the […] to facilitate the selection using streptavidin magnetic beads, as has been previously described (Figure S20).[38] […] To avoid the potential for enriching peptides that bind to the streptavidin resin, we alternated loading the protein using streptavidin and NHS-functionalized magnetic beads for the first three rounds of selection (Figure 5).
The purified phage library (10^11 to 10^12 cfu) in binding buffer was incubated with 1 mM TCEP at 37 °C. After 30 min, the linker (pCAmCP or mCAmCP, 10 mM in DMSO) was added to a final concentration of 100 μM. The solution was incubated for 24 h at RT with slow rotation. The library was then directly used for affinity selection without further purification.
Streptavidin-coated magnetic beads (100 μL, 50% slurry, Cytiva Sera-Mag) were transferred to a 1.5 mL tube, washed three times with 1 mL of binding buffer (10 mM HEPES, 150 mM NaCl, 10 mM MgCl2, and 1 mM KCl, pH 7.4), resuspended in 100 μL of binding buffer, and split into two tubes. […]

[3] = Solubility observation for synthesized peptides; type: physicochemical; conditions: observed at synthesis / BLI testing
[4] = target: T1, ZNRF3 extracellular domain (ZNRF3-ECD); assay: Biolayer interferometry (BLI) binding to immobilized biotinylated ZNRF3-ECD; conditions: pH 7.5, dissociation over 5 min
Experimental: The ZNRF3 ECD was expressed and characterized exactly as previously described.[38] Plasmid pET28a-SUMO-ZNRF3-Avi was cotransformed into E. coli (BL21) along with a plasmid expressing BirA. The cells were then inoculated into 2× YT containing 50 μg/mL kanamycin and 34 μg/mL chloramphenicol and grown at 37 °C until OD = 0.5. Expression was then induced by the addition of 1 mM IPTG and 50 μM biotin, and then the protein was expressed for 18 h at 16 °C. The cells were then pelleted (3750g, 15 min) and then resuspended in buffer A (50 mM Tris-HCl, 10% glycerol, 150 mM NaCl, and 25 mM imidazole, pH 7.5, 20 mL/liter of expression). The cells were then lysed by sonication (1 s on, 1 s off, 5 min, 60% A, repeated once), and the lysate was clarified by centrifugation (25,000g, 20 min). The supernatant was then incubated with a Ni-NTA column for 45 min at 4 °C. The column was then washed with 5 CV of buffer A before being eluted using 2 CV of buffer B (buffer A + 240 mM imidazole). The elution was then concentrated using an Amicon centrifugal filter before being desalted into buffer A on a HiPrep 26/10 column. The SUMO tag was then cleaved by the addition of 30 μg/mL SUMO protease and incubation for 48 h at 4 °C. The protein was then loaded onto a second Ni-NTA column for 45 min at 4 °C, and the flowthrough was collected and concentrated to 1 mL by centrifugation. Pure protein was then isolated using size exclusion chromatography (HiLoad 16/600, Superdex 75 pg) in buffer C (50 mM Tris-HCl, pH 7.5, 10% (v/v) glycerol, 150 mM NaCl, and 0.5 mM EDTA). Pure protein was stored in storage buffer (50 mM Tris-HCl, pH 7.5, 50% (v/v) glycerol, and 150 mM NaCl) at −80 °C before being used for assays.
Biolayer interferometry (BLI) experiments were performed using streptavidin-coated biosensors (Sartorius Bio) on an Octet R8 biolayer interferometer (Sartorius Bio). All experiments were performed in assay buffer (10 mM HEPES, 150 mM NaCl, and 0.01% Tween 20, pH 7.5). Biotinylated ZNRF3 (28 μg/mL in assay buffer) was loaded onto the sensor to 4 nm of loading over 10 min, and then the sensors were quenched for one min with a 1% BSA solution in assay buffer. Peptides were serially diluted in assay buffer containing 0.8% DMF, and the association and dissociation to ZNRF3 were measured over 3 and 5 min, respectively. Between each experiment, sensors were regenerated using 10 mM glycine, pH 1.5. Binding curves were double-referenced against a protein-only sensor and a parallel unloaded sensor to correct for any nonspecific binding to the sensors. All curves were fit in the Octet Kinetic Analysis program (Sartorius Bio) using a 1:1 protein/ligand binding model.

[5] = target: T2, ZNRF3 extracellular domain (biotinylated) (UniProt Q9ULT6 56-219, biotin (on the Avi-Tag; co-expression with BirA and 50 uM biotin)); assay: BLI; biotinylated ZNRF3-ECD loaded on streptavidin biosensors (Octet R8); peptides serially diluted in 10 mM HEPES, 150 mM NaCl, 0.01% Tween 20, pH 7.5 with 0.8% DMF; association 3 min, dissociation 5 min; double-referenced; 1:1 binding model; conditions: both partners purified
T2 construct: ZNRF3, extracellular domain; also called ZNRF3-ECD; ZNRF3 ECD; source: E. coli (BL21), co-expressed with BirA, purified (Ni-NTA, SUMO protease, second Ni-NTA, SEC Superdex 75); not shown: Avi-Tag, N-terminal, kept
T2 sequence (looked up): T1 sequence (Q9ULT6 56-219 limits assumed)

For “[Abu]GGKGGCGW [CGK-5Abu, peptide analogue with 2-aminobutyric acid in place of the N-terminal cysteine]”, the “rate of reaction relative to the cyclization reaction, fold slower” value [1] was ~3 -fold slower.

With “CELVMMHGYWWRQC (also: sidechain bridge or staple (positions not given here)) [Peptide Z28S2, peptide enriched in the mCAmCP selection]” the “fold increase in abundance after round 2” value ([2]; after round 2) was ~5000 -fold and the “solubility (in words)” value [3] was “poor solubility during synthesis”.

For `CSCC[C@@H]1NC(=O)[C@H](CC(C)C)NC(=O)[C@H](CC(N)=O)NC(=O)[C@H](CCC(=O)O)NC(=O)[C@H](Cc2c[nH]c3ccccc23)NC(=O)[C@H](CC(N)=O)NC(=O)[C@H](CC(C)C)NC(=O)[C@H](CCCNC(=N)N)NC(=O)[C@H](CC(C)C)NC(=O)[C@H](Cc2ccccc2)NC(=O)[C@@H]2CSC(=N2)c2nccc(n2)NC(=O)CSC[C@@H](C(N)=O)NC(=O)[C@H](Cc2c[nH]c3ccccc23)NC(=O)[C@@H]2CCCN2C1=O` [Peptide Z28S1] ({CH2CO}-[X2]FLRLNWENLMPWC-NH2; thioether N-14; C-terminus assumed), the “off rates (in words)” value [4] was “high off rates; also recorded: extremely quick off rates”, the “fold enrichment after round 1” value ([2]; after round 1) was “over 32,000 -fold” and the “share of total sequences after round 4” value ([2]; round 4, 84,190 total sequences) was 81%.

For [Abu]HLSPLEAWRQKL[Abu] [Z27S1Abu (linear analogue of Z27S1)], the Kd [5] was 2600 nM.
